Measurements: PubChem BioAssay AID330 (DTP/NCI, 2004)
Where “and” joins values, the source holds several entries; their conditions need not be identical. Equal entries are not always repeated. Inconclusive results and toxic doses are left out. The calls were made as follows: active = survival T/C of 150% or more; inactive = T/C below 125% in these data.

Test system: P388 leukemia ip, CD2F1 mice, survival T/C
Experiment: NCI In Vivo Anticancer Drug Screen. Data for tumor model P388 Leukemia (intraperitoneal) in CD2F1 (CDF1) mice
Conditions: endpoint: median survival time, higher = longer survival
Summary of the method: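 Mice carrying the transplanted tumor received test compound or vehicle. Survival was recorded in each group, and the value is the treated-group measurement divided by that of the vehicle-treated control group.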

[1] = dose: 50.0 mg/kg/injection, schedule: Q01DX005 (ip), vehicle: Klucel (hydroxypropylcellulose) (HPC)
[2] = dose: 100.0 mg/kg/injection, schedule: Q01DX005 (ip), vehicle: Klucel (hydroxypropylcellulose) (HPC)
[3] = dose: 200.0 mg/kg/injection, schedule: Q01DX005 (ip), vehicle: Klucel (hydroxypropylcellulose) (HPC)
[4] = dose: 50.0 mg/kg/injection, schedule: Q01DX009 (ip), vehicle: saline
[5] = dose: 100.0 mg/kg/injection, schedule: Q01DX009 (ip), vehicle: saline
[6] = dose: 12.5 mg/kg/injection, schedule: Q01DX005 (ip), vehicle: saline with Tween-80
[7] = dose: 25.0 mg/kg/injection, schedule: Q01DX005 (ip), vehicle: saline with Tween-80
[8] = dose: 50.0 mg/kg/injection, schedule: Q01DX005 (ip), vehicle: saline with Tween-80

Measured: T/C

CCN=NNc1ccc(C#N)cc1
inactive: dose: 6.25 mg/kg/injection, schedule: Q01DX009 (ip), vehicle: distilled water + Tween-80 104 % of control | dose: 12.5 mg/kg/injection, schedule: Q01DX009 (ip), vehicle: distilled water + Tween-80 109 % of control and 91 % of control | dose: 25.0 mg/kg/injection, schedule: Q01DX009 (ip), vehicle: distilled water + Tween-80 119 % of control and 97 % of control | dose: 50.0 mg/kg/injection, schedule: Q01DX009 (ip), vehicle: distilled water + Tween-80 100 % of control and 123 % of control | dose: 100.0 mg/kg/injection, schedule: Q01DX009 (ip), vehicle: distilled water + Tween-80 106 % of control

CN(C)/C=C1\C(C(C)(C)C)=CC(C(C)(C)C)=C1N=O
inactive: dose: 60.0 mg/kg/injection, schedule: Q01DX005 (ip), vehicle: Klucel (hydroxypropylcellulose) (HPC) 105 % of control | dose: 120.0 mg/kg/injection, schedule: Q01DX005 (ip), vehicle: Klucel (hydroxypropylcellulose) (HPC) 104 % of control

O=C1C=Cc2cccc3ccc(O)c1c23
inactive: [1] 104 % of control | [2] 109 % of control | [3] 104 % of control

C=C1C(=O)OC2(C)C3CCC(C3)C12 (stereo not drawn)
inactive: [4] 96 % of control | [5] 113 % of control

COc1ccc(Cc2cc(N=NC(N)=O)c(OC)cc2O)cc1
inactive: [6] 93 % of control | [7] 87 % of control | [8] 88 % of control

[CH3][Sn]1([CH3])[O]C(=O)c2ccccc2C(=O)[O]1
inactive: dose: 12.5 mg/kg/injection, schedule: Q01DX001 (ip), vehicle: Klucel (hydroxypropylcellulose) (HPC) 102 % of control and 111 % of control | dose: 25.0 mg/kg/injection, schedule: Q01DX001 (ip), vehicle: Klucel (hydroxypropylcellulose) (HPC) 101 % of control and 102 % of control | dose: 50.0 mg/kg/injection, schedule: Q01DX001 (ip), vehicle: Klucel (hydroxypropylcellulose) (HPC) 100 % of control

C/C(=C\c1ccc([N+](=O)[O-])cc1)C(=O)NC(C)C
inactive: dose: 50.0 mg/kg/injection, schedule: Q01DX005 (ip), vehicle: other 102 % of control | dose: 100.0 mg/kg/injection, schedule: Q01DX005 (ip), vehicle: other 93 % of control | dose: 200.0 mg/kg/injection, schedule: Q01DX005 (ip), vehicle: other 105 % of control

O=C1CSC=NN1c1ccccc1
inactive: dose: 60.0 mg/kg/injection, schedule: Q01DX005 (ip), vehicle: saline with Tween-80 102 % of control | dose: 120.0 mg/kg/injection, schedule: Q01DX005 (ip), vehicle: saline with Tween-80 92 % of control | dose: 240.0 mg/kg/injection, schedule: Q01DX005 (ip), vehicle: saline with Tween-80 108 % of control

Cc1ccc2nc(/N=C/c3ccc(N(C)C)cc3)sc2c1
inactive: dose: 100.0 mg/kg/injection, schedule: Q04DX003 (ip), vehicle: saline 109 % of control | dose: 200.0 mg/kg/injection, schedule: Q04DX003 (ip), vehicle: saline 107 % of control | dose: 400.0 mg/kg/injection, schedule: Q04DX003 (ip), vehicle: saline 101 % of control

O=Cc1c(Cl)n(C(=O)c2ccc(F)cc2)c2ccccc12
inactive: dose: 100.0 mg/kg/injection, schedule: Q01DX001 (ip), vehicle: Klucel (hydroxypropylcellulose) (HPC) 97 % of control | dose: 200.0 mg/kg/injection, schedule: Q01DX001 (ip), vehicle: Klucel (hydroxypropylcellulose) (HPC) 113 % of control | dose: 400.0 mg/kg/injection, schedule: Q01DX001 (ip), vehicle: Klucel (hydroxypropylcellulose) (HPC) 96 % of control

CC(=O)Oc1ccc(N2C(=O)C3C(C2=O)C2c4ccccc4C3C3CCCCN32)cc1 (stereo not drawn) (tested in a mixture with another compound)
inactive: dose: 6.25 mg/kg/injection, schedule: Q01DX009 (ip), vehicle: water 101 % of control | dose: 12.5 mg/kg/injection, schedule: Q01DX009 (ip), vehicle: water 111 % of control | dose: 25.0 mg/kg/injection, schedule: Q01DX009 (ip), vehicle: water 104 % of control | dose: 50.0 mg/kg/injection, schedule: Q01DX009 (ip), vehicle: water 102 % of control | dose: 100.0 mg/kg/injection, schedule: Q01DX009 (ip), vehicle: water 104 % of control

COc1cc(NC(=O)SC2=NCCS2)cc(OC)c1
inactive: dose: 50.0 mg/kg/injection, schedule: Q01DX009 (ip), vehicle: saline with Tween-80 107 % of control | dose: 100.0 mg/kg/injection, schedule: Q01DX009 (ip), vehicle: saline with Tween-80 110 % of control | dose: 200.0 mg/kg/injection, schedule: Q01DX009 (ip), vehicle: saline with Tween-80 100 % of control

CC1(C)COC(=O)C(C#N)=C1CBr
inactive: dose: 12.5 mg/kg/injection, schedule: Q01DX005 (ip), vehicle: Klucel (hydroxypropylcellulose) (HPC) 105 % of control | dose: 25.0 mg/kg/injection, schedule: Q01DX005 (ip), vehicle: Klucel (hydroxypropylcellulose) (HPC) 105 % of control | [1] 99 % of control and 116 % of control

C/C(=N\NC(=S)N1CC(C)OC(C)C1)c1cnccn1 (stereo not drawn)
inactive: [6] 107 % of control | [7] 100 % of control | [8] 101 % of control and 97 % of control

CC(C)(C)c1ccc(S(=O)(=O)O)cc1
inactive: [4] 103 % of control | [5] 100 % of control | dose: 200.0 mg/kg/injection, schedule: Q01DX009 (ip), vehicle: saline 86 % of control

Nc1nc(Cl)cc(=O)[nH]1
inactive: dose: 50.0 mg/kg/injection, schedule: Q04DX003 (ip), vehicle: Klucel (hydroxypropylcellulose) (HPC) 94 % of control | dose: 100.0 mg/kg/injection, schedule: Q04DX003 (ip), vehicle: Klucel (hydroxypropylcellulose) (HPC) 102 % of control | dose: 200.0 mg/kg/injection, schedule: Q04DX003 (ip), vehicle: Klucel (hydroxypropylcellulose) (HPC) 94 % of control | dose: 400.0 mg/kg/injection, schedule: Q04DX003 (ip), vehicle: Klucel (hydroxypropylcellulose) (HPC) 94 % of control

Cc1oc2ccccc2c(=O)c1C(=O)O
inactive: [1] 99 % of control | [2] 100 % of control | [3] 101 % of control

CN(C)C(=S)SSC(C)(C)C
inactive: [1] 100 % of control | [2] 99 % of control | [3] 100 % of control

C/C=C/N=NNc1ccccc1OC
inactive: dose: 100.0 mg/kg/injection, schedule: Q04DX003 (ip), vehicle: saline + Tween-80 + alcohol 107 % of control
